Consider one compound from patent US8647687B2, “Isoamyl acetate for weight management” (Nestec S.A., priority 2008, dated 2014).

Molecules are shown by their SMILES.

A short description of this assay: Clinical trial: Wanting, Liking and Intensity ratings of flavored waters after a preload. It counts as in vivo, human. The following applies: prior consumption of the preload, then rating of isoamyl acetate flavored water; 17 participants. Here is the method:
Isoamyl acetate was combined with 0.5% w/w sucrose (Fisher Scientific) and dissolved in bottled mineral water (Vittel, Nestlé waters, France). Isoamyl acetate was provided as liquid concentrate supplied by Sigma-Aldrich (Steinheim, Germany). The final concentration of isoamyl acetate was 16 ppm.
A clinical trial with 17 healthy participants was conducted to investigate the neural correlates of flavor reward in terms of “Liking” (or pleasure) and “Wanting” (or appetite). Seventeen participants rated flavored waters in different conditions while their brain electrical activity was monitored using electro-encephalography. Waters were flavored either with isoamyl acetate (described as banana) or ethyl butyrate (described as strawberry). Experimental conditions consisted in the ratings of the 2 flavored waters after a preload (prior consumption of a flavored water) or without a preload.
The behavioral results of this clinical trial are summarized in FIG. 1 showing the mean Wanting (or appetite) and Liking (or pleasure) ratings (from 1, not at all to 9, extremely) obtained for the ETB flavored water in the different Preload conditions from 17 participants. […] IAA: isoamyl acetate; ETB: ethyl butyrate.

On to `CCCC(=O)OCC` [ethyl butyrate], for which the “appetite for isoamyl acetate flavored water” value is on record as “no impact”.
